In PubChem BioAssay AID328 (DTP/NCI, 2004):
Inconclusive results and toxic doses are left out.

Test system: BDF1 mice, P388 leukemia ip, median survival T/C
Test: NCI In Vivo Anticancer Drug Screen. Data for tumor model P388 Leukemia (intraperitoneal) in B6D2F1 (BDF1) mice
Conditions: endpoint: median survival time, higher = longer survival
Description: The antitumor activity of compounds was measured in mice bearing transplantable tumors. Survival or tumor size were measured and the results are expressed as the measurement made in the treated group (T) divided by the measurement made in the vehicle treated control group (C). The tumor model used in this assay is P388 Leukemia (intraperitoneal) in B6D2F1 (BDF1) mice

[1] = dose: 100.0 mg/kg/injection, schedule: Q04DX003 (ip), vehicle: saline with Tween-80
[2] = dose: 200.0 mg/kg/injection, schedule: Q04DX003 (ip), vehicle: saline with Tween-80
[3] = dose: 400.0 mg/kg/injection, schedule: Q04DX003 (ip), vehicle: saline with Tween-80
[4] = dose: 25.0 mg/kg/injection, schedule: Q01DX009 (ip), vehicle: saline with Tween-80
[5] = dose: 50.0 mg/kg/injection, schedule: Q01DX009 (ip), vehicle: saline with Tween-80
[6] = dose: 100.0 mg/kg/injection, schedule: Q04DX003 (ip), vehicle: saline
[7] = dose: 200.0 mg/kg/injection, schedule: Q04DX003 (ip), vehicle: saline
[8] = dose: 400.0 mg/kg/injection, schedule: Q04DX003 (ip), vehicle: saline
[9] = dose: 50.0 mg/kg/injection, schedule: Q04DX003 (ip), vehicle: water
[10] = dose: 100.0 mg/kg/injection, schedule: Q01DX009 (ip), vehicle: saline with Tween-80

For `O=NN(CCCl)C(=O)Nc1ccc(I)cc1`, the T/C (dose: 0.44 mg/kg/injection, schedule: Q01DX009 (ip), vehicle: saline with Tween-80) was 113 % of control, the T/C (dose: 0.66 mg/kg/injection, schedule: Q01DX009 (ip), vehicle: saline with Tween-80) was 118 % of control and the T/C (dose: 0.75 mg/kg/injection, schedule: Q04DX003 (ip), vehicle: saline) was 100 % of control. For the same compound, the T/C (dose: 0.9 mg/kg/injection, schedule: Q01DX009 (ip), vehicle: saline) was 104 % of control, the T/C (dose: 1.5 mg/kg/injection, schedule: Q04DX003 (ip), vehicle: saline) was 109 % of control and the T/C (dose: 3.0 mg/kg/injection, schedule: Q04DX003 (ip), vehicle: saline) was 109 % of control. The T/C (dose: 3.6 mg/kg/injection, schedule: Q01DX009 (ip), vehicle: saline) was 150 % of control, the T/C (dose: 44.0 mg/kg/injection, schedule: Q04DX003 (ip), vehicle: saline sonified) was 150 % of control and the T/C (dose: 66.0 mg/kg/injection, schedule: Q04DX003 (ip), vehicle: saline sonified) was 160 % of control. The T/C [1] was 215 % of control.
`NC1CCC(CCCC2CCCC2)CC1` (stereo not given) was tested, and the T/C (dose: 25.0 mg/kg/injection, schedule: Q01DX009 (ip), vehicle: Klucel (hydroxypropylcellulose) (HPC)) was 101 % of control and the T/C (dose: 50.0 mg/kg/injection, schedule: Q01DX009 (ip), vehicle: Klucel (hydroxypropylcellulose) (HPC)) was 110 % of control.
In the case of `COc1cccc(CNc2cccc(Cl)c2Cl)c1OC`, the T/C [1] is reported as 100 % of control, the T/C [2] is reported as 104 % of control and the T/C [3] is reported as 100 % of control.
For `CCNC(=O)Nc1ccc(N(CC)CC)cc1`, the T/C [1] was 100 % of control, the T/C [2] was 100 % of control and the T/C [3] was 100 % of control.
`CN(C)c1ccc(P(c2ccc(N(C)C)cc2)c2ccc(N(C)C)cc2)cc1` was tested, and the T/C (dose: 3.12 mg/kg/injection, schedule: Q01DX009 (ip), vehicle: Klucel (hydroxypropylcellulose) (HPC)) was 96 % of control, the T/C (dose: 6.25 mg/kg/injection, schedule: Q01DX009 (ip), vehicle: Klucel (hydroxypropylcellulose) (HPC)) was 88 % of control and the T/C (dose: 12.5 mg/kg/injection, schedule: Q01DX009 (ip), vehicle: Klucel (hydroxypropylcellulose) (HPC)) was 88 % of control. The T/C (dose: 12.5 mg/kg/injection, schedule: Q04DX003 (ip), vehicle: Klucel (hydroxypropylcellulose) (HPC)) was 91 % of control, the T/C (dose: 25.0 mg/kg/injection, schedule: Q04DX003 (ip), vehicle: Klucel (hydroxypropylcellulose) (HPC)) was 113 % of control and the T/C (dose: 50.0 mg/kg/injection, schedule: Q04DX003 (ip), vehicle: Klucel (hydroxypropylcellulose) (HPC)) was 86 % of control.
`CCN(CC)c1cc(Cl)c(C=O)cc1[N+](=O)[O-]` was tested, and the T/C (dose: 100.0 mg/kg/injection, schedule: Q01DX009 (ip), vehicle: Klucel (hydroxypropylcellulose) (HPC)) was 95 % of control, the T/C (dose: 200.0 mg/kg/injection, schedule: Q01DX009 (ip), vehicle: Klucel (hydroxypropylcellulose) (HPC)) was 104 % of control and the T/C (dose: 400.0 mg/kg/injection, schedule: Q01DX009 (ip), vehicle: Klucel (hydroxypropylcellulose) (HPC)) was 95 % of control.
For `O=C(c1ccccc1)C1CC1c1ccccc1` (stereo not given), the T/C (dose: 100.0 mg/kg/injection, schedule: Q01DX001 (ip), vehicle: Klucel (hydroxypropylcellulose) (HPC)) was 120 % of control, the T/C (dose: 200.0 mg/kg/injection, schedule: Q01DX001 (ip), vehicle: Klucel (hydroxypropylcellulose) (HPC)) was 104 % of control and the T/C (dose: 400.0 mg/kg/injection, schedule: Q01DX001 (ip), vehicle: Klucel (hydroxypropylcellulose) (HPC)) was 100 % of control.
In the case of `COc1cc(/C=C/[N+](=O)[O-])c(OC)cc1Br`, the T/C (dose: 3.12 mg/kg/injection, schedule: Q01DX009 (ip), vehicle: saline with Tween-80) is reported as 99 % of control, the T/C (dose: 6.25 mg/kg/injection, schedule: Q01DX009 (ip), vehicle: saline with Tween-80) is reported as 103 % of control and the T/C (dose: 12.5 mg/kg/injection, schedule: Q01DX009 (ip), vehicle: saline with Tween-80) is reported as 105 % of control. For the same compound, the T/C [4] was 153 % of control and the T/C [5] was 94 % of control.
For `CC(=O)Nc1cc(C)c2ccc(Cl)nc2n1`, the T/C [6] was 97 % of control, the T/C [7] was 92 % of control and the T/C [8] was 91 % of control.
With `CC(=O)CC(C)=O.CC(=O)CC(C)=O.CC(=O)CC(C)=O.[Cr]` the T/C [6] was 90 % of control, the T/C [7] was 90 % of control and the T/C [8] was 90 % of control.
For `CN(C)c1ccc(NC(=O)Nc2cccc(Cl)c2)cc1`, the T/C [1] was 95 % of control, the T/C [2] was 90 % of control and the T/C [3] was 95 % of control.
With `COc1cc2ccncc2cc1O` the T/C (dose: 3.13 mg/kg/injection, schedule: Q04DX003 (ip), vehicle: water) was 97 % of control, the T/C (dose: 6.25 mg/kg/injection, schedule: Q04DX003 (ip), vehicle: water) was 97 % of control and the T/C (dose: 12.5 mg/kg/injection, schedule: Q04DX003 (ip), vehicle: water) was 94 % of control. The T/C (dose: 25.0 mg/kg/injection, schedule: Q04DX003 (ip), vehicle: water) was 94 % of control and the T/C [9] was 101 % of control.
In the case of `O=C1CN=C(c2ccc[nH]2)c2cc(Cl)ccc2N1`, the T/C [4] is reported as 118 % of control, the T/C (dose: 45.0 mg/kg/injection, schedule: Q01DX009 (oral), vehicle: saline) is reported as 104 % of control and the T/C [5] is reported as 100 % of control. The T/C (dose: 50.0 mg/kg/injection, schedule: Q01DX009 (ip), vehicle: saline) was 97 % of control, the T/C (dose: 65.0 mg/kg/injection, schedule: Q01DX009 (oral), vehicle: saline) was 100 % of control and the T/C (dose: 100.0 mg/kg/injection, schedule: Q01DX001 (ip), vehicle: saline with Tween-80) was 95 % of control. The T/C (dose: 100.0 mg/kg/injection, schedule: Q01DX001 (oral), vehicle: saline with Tween-80) was 90 % of control, the T/C [10] was 118 % of control and the T/C (dose: 100.0 mg/kg/injection, schedule: Q01DX009 (ip), vehicle: saline) was 105 % of control. For the same compound, the T/C (dose: 100.0 mg/kg/injection, schedule: Q01DX009 (oral), vehicle: saline with Tween-80) was 95 % of control, the T/C (dose: 200.0 mg/kg/injection, schedule: Q01DX001 (ip), vehicle: saline with Tween-80) was 104 % of control and the T/C (dose: 200.0 mg/kg/injection, schedule: Q01DX001 (oral), vehicle: saline with Tween-80) was 86 % of control. For the same compound, the T/C (dose: 200.0 mg/kg/injection, schedule: Q01DX009 (ip), vehicle: saline with Tween-80) was 118 % of control, the T/C (dose: 200.0 mg/kg/injection, schedule: Q01DX009 (ip), vehicle: saline) was 97 % of control and the T/C (dose: 200.0 mg/kg/injection, schedule: Q01DX009 (oral), vehicle: saline with Tween-80) was 104 % of control. For the same compound, the T/C (dose: 400.0 mg/kg/injection, schedule: Q01DX001 (ip), vehicle: saline with Tween-80) was 90 % of control, the T/C (dose: 400.0 mg/kg/injection, schedule: Q01DX001 (oral), vehicle: saline with Tween-80) was 95 % of control and the T/C (dose: 400.0 mg/kg/injection, schedule: Q01DX009 (ip), vehicle: saline with Tween-80) was 163 % of control. For the same compound, the T/C (dose: 400.0 mg/kg/injection, schedule: Q01DX009 (ip), vehicle: saline) was 103 % of control, the T/C (dose: 800.0 mg/kg/injection, schedule: Q01DX001 (ip), vehicle: saline with Tween-80) was 109 % of control and the T/C (dose: 800.0 mg/kg/injection, schedule: Q01DX001 (oral), vehicle: saline with Tween-80) was 100 % of control.
In the case of `NC(N)=Nc1nc2ccccc2s1`, the T/C (dose: 12.5 mg/kg/injection, schedule: Q04DX003 (ip), vehicle: saline sonified) is reported as 104 % of control, the T/C (dose: 25.0 mg/kg/injection, schedule: Q04DX003 (ip), vehicle: saline sonified) is reported as 100 % of control and the T/C (dose: 50.0 mg/kg/injection, schedule: Q04DX003 (ip), vehicle: saline sonified) is reported as 100 % of control.
In the case of `COc1ccccc1N1CCN(CC(O)COc2ccccc2C(C)=O)CC1` (stereo not given), the T/C [4] is reported as 95 % of control, the T/C [5] is reported as 91 % of control and the T/C [10] is reported as 112 % of control.
With `Cc1cc(=O)c2cc(N)ccc2[nH]1` the T/C (dose: 25.0 mg/kg/injection, schedule: Q01DX009 (ip), vehicle: water) was 110 % of control, the T/C (dose: 50.0 mg/kg/injection, schedule: Q01DX009 (ip), vehicle: water) was 94 % of control and the T/C [9] was 102 % of control. For the same compound, the T/C (dose: 100.0 mg/kg/injection, schedule: Q01DX009 (ip), vehicle: water) was 91 % of control, the T/C (dose: 100.0 mg/kg/injection, schedule: Q04DX003 (ip), vehicle: water) was 106 % of control and the T/C (dose: 200.0 mg/kg/injection, schedule: Q01DX009 (ip), vehicle: water) was 119 % of control. For the same compound, the T/C (dose: 200.0 mg/kg/injection, schedule: Q04DX003 (ip), vehicle: water) was 113 % of control, the T/C (dose: 400.0 mg/kg/injection, schedule: Q01DX009 (ip), vehicle: water) was 92 % of control and the T/C (dose: 400.0 mg/kg/injection, schedule: Q04DX003 (ip), vehicle: water) was 103 % of control.
